Reference: US8865901B2, “Gain-of-function Bcl-2 inhibitors” (priority 2009, dated 2014)
Where two headings read alike, the source gives them in different places.

How the values were obtained:
[1] = tested on: TAMH cells overexpressing Bcl-xL (TAMH-Bcl-xL, Tabx2s); assay: Cytotoxicity / apoptosis induction in TAMH cells overexpressing Bcl-xL; assay type: cell-based; conditions: for Neo/Bcl-xL: selectivity ratio
Description: (§1) To examine the sensitivity of cells over-expressing Bcl-xL to various mitochondrial inhibitors and apoptosis inducers, cell lines over-expressing Bcl-xL were prepared and tested according to Hockenberry et al. U.S. Pat. No. 7,241,804, hereby incorporated by reference in its entirety. Competitive binding of compounds with fluorescent antimycin A3, and competitive binding of compounds with BH3 peptide and Bcl-2. Competitive binding of compounds with BH-3 peptide were also measured using Bcl-xL as previously described. Id.
(§2) Cell lines were grown in RPMI 1640 medium (Gibco, Grand Island, N.Y.) supplemented with 5% fetal bovine serum (Hyclone, Logan, Utah). Also shown is the ratio of TAMH cells expressing Bcl-xL to those expressing A142L (WT:142L). The assay measures the potency of various compounds with respect to inducing apoptosis in these cells.
(§3) The compounds described in Example 2 were tested for their ability to inhibit Bcl-2 gain-of-function in TAMH cells, TAMH cells overexpressing […] (TAMH-Bcl-xL), TAMH cells transfected with Neo vector (Neo), TAMH cells over expressing a variant of Bcl-xL (A142L) using the methods of Example 1. 3-6.
(§4) The effects of the compounds described in Example 8 on TAMH cells, TAMH cells overexpressing Bcl-xL (TAMH-Bcl-xL), TAMH cells transfected with Neo vector (Neo), TAMH cells over expressing a variant of Bcl-xL (A142L) is shown in Table 8
(§5) The effects of the compounds described in Example 10 on TAMH cells, TAMH cells overexpressing Bcl-xL (TAMH-Bcl-xL), TAMH cells transfected with Neo vector (Neo), TAMH cells over expressing a variant of Bcl-xL (A142L) is shown in the following Table 10

[2] = tested on: TAMH cells transfected with Neo vector (Neo); assay: Cytotoxicity / apoptosis induction in TAMH cells transfected with Neo vector; assay type: cell-based
Description: as §1, §2, §3, §4, §5

[3] = Table 13, read-out: IC50 TAMH Bcl-xL
[4] = Table 13, read-out: IC50 TAMH Neo
[5] = Table 10, read-out: IC50 TAMH Bcl-XL
[6] = Table 10, read-out: IC50 TAMH Neo
[7] = Table 15, read-out: IC50 TAMH Bcl-XL
[8] = Table 15, read-out: IC50 TAMH Neo

SMILES: Oc1c(CCl)cc(Cl)cc1Cc1cc(Cl)cc(Cc2cc(Cl)cc(CCl)c2O)c1O [Compound 48444]
- Fold Select. (Neo/Bcl-xL) ([1]; Table 13): 9.3
- IC50 [1, 3]: 1.3 µM
- IC50 [2, 4]: 12.1 µM

SMILES: OCc1cc(Cl)cc(Cc2cc(Cl)cc(Cc3cc(Cl)cc(CO)c3O)c2O)c1O [Compound 48445]
- Fold Select. (Neo/Bcl-xL) ([1]; Table 13): 2.5
- IC50 [1, 3]: 1.8 µM
- IC50 [2, 4]: 4.5 µM

SMILES: CC(=O)c1cc(Cl)cc(Cc2cc(Cl)cc(Cc3cc(Cl)cc(C(C)=O)c3O)c2O)c1O [Compound 48698]
- Fold Select. (Neo/Bcl-xL) ([1]; Table 13): 8.1
- IC50 [1, 3]: 0.7 µM
- IC50 [2, 4]: 5.7 µM

SMILES: CN(Cc1cc(C(C)(C)C)cc(Br)c1O)Cc1cc(C(C)(C)C)cc(Br)c1O [Compound 48881]
- Neo/Bcl-XL ([1]; Table 19): 4.6
- EC50 ([1]; Table 19, read-out: Bcl-XL): 6.1 µM
- EC50 ([2]; Table 19, read-out: Neo): 28 µM

SMILES: Cc1cc(O)c(Sc2c(O)cc(C)c(Cl)c2C)c(C)c1Cl [Compound 52168]
- Fold Select. (Neo/Bcl-XL) ([1]; Table 10): 5.2
- IC50 [1, 5]: 1 µM
- IC50 [2, 6]: 5.2 µM

SMILES: Oc1ccc(Cl)cc1Sc1cc(Cl)ccc1O [Compound 55636]
- EC50 ([1]; Table 8, read-out: TAMH Bcl-xL): 1.9 µM
- Neo/Bcl-xL ([1]; Table 8): 7.7
- Fold Select. (Neo/Bcl-XL) ([1]; Table 10): 7.7
- IC50 [1, 5]: 1.9 µM
- EC50 ([2]; Table 8, read-out: TANH Neo): 14.7 µM
- IC50 [2, 6]: 14.7 µM

SMILES: Cc1cc(O)c(Sc2c(O)cc(C)cc2C(C)(C)C)c(C(C)(C)C)c1 [Compound 59685]
- Fold Select. (Neo/Bcl-XL) ([1]; Table 10): 5.5
- IC50 [1, 5]: 12 µM
- IC50 [2, 6]: 66.4 µM

SMILES: CN(C)Cc1cc(Cl)cc(Sc2cc(Cl)cc(CN(C)C)c2O)c1O [Compound 62419]
- Fold Select. (Neo/Bcl-XL) ([1]; Table 10): 1.8
- IC50 [1, 5]: 20 µM
- IC50 [2, 6]: 36.1 µM

SMILES: Cc1cc(Cl)cc(Cc2cc(Cl)cc(C)c2O)c1O [Compound 77122]
- Fold Select. (Neo/Bcl-XL) ([1]; Table 10): 3.3
- IC50 [1, 5]: 2 µM
- IC50 [2, 6]: 6.6 µM

SMILES: Cc1cccc(Cc2cccc(C)c2O)c1O [Compound 85476]
- Fold Select. (Neo/Bcl-XL) ([1]; Table 10): 2.9
- IC50 [1, 5]: 18.8 µM
- IC50 [2, 6]: 55.3 µM

SMILES: CN(Cc1cc(Cl)cc(Cl)c1O)Cc1c(O)ccc2ccccc12 [Compound 85479]
- Neo/Bcl-XL ([1]; Table 18): 5.8
- EC50 ([1]; Table 18, read-out: Bcl-XL): 2.5 µM
- EC50 ([2]; Table 18, read-out: Neo): 14.5 µM

SMILES: CC(C)c1ccc(S(=O)(=O)c2ccc([N+](=O)[O-])cc2[N+](=O)[O-])cc1 [Compound 85653]
- Fold Selectivity (Neo/Bcl-XL) ([1]; Table 15): 2.7
- IC50 [1, 7]: 4.5 µM
- IC50 [2, 8]: 12 µM

SMILES: CCN(Cc1cc(Cl)cc(C)c1O)Cc1c(O)ccc2ccccc12 [Compound 88850]
- Neo/Bcl-XL ([1]; Table 18): 2.7
- EC50 ([1]; Table 18, read-out: Bcl-XL): 4.5 µM
- EC50 ([2]; Table 18, read-out: Neo): 12 µM

SMILES: CN(Cc1cc(Br)cc(Br)c1O)Cc1c(O)ccc2ccccc12 [Compound 88852]
- Neo/Bcl-XL ([1]; Table 18): 5.8
- EC50 ([1]; Table 18, read-out: Bcl-XL): 3.7 µM
- EC50 ([2]; Table 18, read-out: Neo): 21.5 µM

SMILES: O=[N+]([O-])c1ccc(S(=O)(=O)Cc2ccccc2)c([N+](=O)[O-])c1 [Compound 122657]
- Fold Selectivity (Neo/Bcl-XL) ([1]; Table 15): 3.9
- IC50 [1, 7]: 3.5 µM
- IC50 [2, 8]: 13.5 µM

SMILES: O=[N+]([O-])c1ccc(S(=O)(=O)Cc2ccccc2)c2nonc12 [Compound 228148]
- EC50 ([1]; Table 8, read-out: TAMH Bcl-xL): 6 µM
- Neo/Bcl-xL ([1]; Table 8): 3.8
- Fold Selectivity (Neo/Bcl-XL) ([1]; Table 15): 3.8
- IC50 [1, 7]: 6 µM
- EC50 ([2]; Table 8, read-out: TANH Neo): 22.5 µM
- IC50 [2, 8]: 22.5 µM

SMILES: CC(C)(C)c1cc(C(C)(C)c2ccccc2)cc(Cc2cc(C(C)(C)c3ccccc3)cc(C(C)(C)C)c2O)c1O [Compound 288938]
- Fold Select. (Neo/Bcl-XL) ([1]; Table 10): 3.3
- IC50 [1, 5]: 28 µM
- IC50 [2, 6]: 93.1 µM

SMILES: COc1ccc(C(=O)N/N=C2\C(=O)c3c(C)cc(C)cc3CC2(C)C)cc1 [Compound 310343]
- IC50 ([1]; Mus musculus, TAMH, Table 16, read-out: TAMH Bcl-XL IC50): 25 µM
- Fold Selectivity (Neo/Bcl-XL) ([1]; Table 16): >4
- IC50 ([2]; Mus musculus, TAMH, Table 16, read-out: TAMH Neo IC50): > 100 µM

SMILES: O=[N+]([O-])c1ccc(S(=O)(=O)C2CCCCC2Cl)c([N+](=O)[O-])c1 (stereo not drawn) [Compound 405645]
- Fold Selectivity (Neo/Bcl-XL) ([1]; Table 15): 2.1
- IC50 [1, 7]: 2.9 µM
- IC50 [2, 8]: 6.1 µM

SMILES: O=S(=O)(c1cc(Cl)ccc1O)c1cc(Cl)ccc1O [Compound 406932]
- Fold Select. (Neo/Bcl-XL) ([1]; Table 10): 4.4
- IC50 [1, 5]: 13.6 µM
- Fold Selectivity (Neo/Bcl-XL) ([1]; Table 15): 4.4
- IC50 [1, 7]: 13.6 µM
- IC50 [2, 6]: 57.2 µM
- IC50 [2, 8]: 57.2 µM

SMILES: [O-][S+](c1cc(Cl)cc(Cl)c1O)c1cc(Cl)cc(Cl)c1O [Compound 523910]
- Fold Select. (Neo/Bcl-XL) ([1]; Table 10): 6.4
- IC50 [1, 5]: 2.2 µM
- IC50 [2, 6]: 14.2 µM

SMILES: Cc1cc(C(C)(C)C)cc(Cc2cc(C(C)(C)C)cc(Cc3cc(C(C)(C)C)cc(C)c3O)c2O)c1O [Compound 634604]
- Fold Select. (Neo/Bcl-xL) ([1]; Table 13): 6.4
- IC50 [1, 3]: 5 µM
- IC50 [2, 4]: 32.1 µM
